Experimental data: US11517617B2, “Methods and compositions for preventing influenza infection” (THE UNIVERSITY OF MELBOURNE, priority 2017, dated 2022)

Tests used:
CD8^+ T cells [1] = assay: In vitro screening and validation in HLA-A*02:01-expressing human PBMCs, CD8^+ T cell lines, IFNγ/TNF ICS; type: cell-based; conditions: for CD8^+ T cell response hierarchy of individual peptides: HLA-A*0201^+ donors, dissection of pools into individual peptides; for CD8^+ T cell response, median / donors with response: T cell lines towards individual peptides, n=6
Description: As a next step, the IBV-specific CD8^+ T cell responses towards the 67 LC/MS-identified IBV-peptides in HLA-A*02:01-expressing individuals were dissected. CD8^+ T cell lines specific for each of the 6 peptide pools were established, and then re-stimulated cells with the cognate pool in an IFNγ/TNF ICS assay (FIG. 2f).
To validate these responses independently of the peptide pools, CD8^+ T cell lines were established towards individual immunogenic peptides (FIG. 2i). […] Thus, these thorough in vivo and in vitro analyses identified 5 novel peptides recognized by CD8^+ T cells in complex with the HLA-A*02:01 molecule, with BHA543-551 being immunodominant amongst the peptides tested, in both mice and humans.
Peripheral blood mononuclear cells (PBMC) from healthy A2:01+ donors were cultured in the presence of antigens (10 μM peptide) for 10 days in the presence of IL-2 (10 U/ml). On day 10 PBMCs were stimulated with peptides (1 μM) for 5 hours in the presence of BFA. Cells were surface stained for CD3 and CD8 and intracellularly stained for IFNγ and TNF using the BD cytofix/cytoperm kit according to the manufacturer's instructions (BD Biosciences).
Any pools with positive ICS responses were then dissected to their individual peptides.

CD8^+ T cells [2] = tested on: CD8^+ T cells; set-up: species or system HHD-A2 mice; conditions: mouse, in vivo
CD8^+ T cells [3] = assay: Recall responses in HHD-A2 mice primed with B/Malaysia and challenged with B/Phuket; type: in vivo; conditions: spleen d8 after B/Phuket challenge; not statistically significant
Description: To further verify the immunogenicity of these epitopes in recall responses, HHD-A2 mice were primed i.n. with B/Malaysia, infected with the heterologous strain B/Phuket 6 weeks later and then assessed CD8^+ T cells against the main epitopes A2/BHA543-551 and A2/BNS1266-274 in the spleen on d8 after challenge.

tetramer^+ CD8^+ T cells = assay: Tetramer staining of IAV- or IBV-specific CD8^+ T cell lines established in vitro from healthy adult PBMC; type: cell-based, human; conditions: IBV-specific T cell lines, n=11
Description: Conversely, the universal A2/PB1413 epitope within the IBV-specific T cell lines was immunodominant (0.3%; detected in 8/11 donors) over the IBV-specific A2/BHA543 (0.11%; detected in 10/11 donors) and A2/BNS1266 epitopes (0.01%) (FIG. 4c).

CD8^+ T cells [4] = tested on: CD8^+ T cells; set-up: species or system A24 mice; conditions: mouse
CD8+ T cells = tested on: CD8+ T cells; set-up: species or system transgenic HLA-A24 mice; conditions: mouse, in vivo
[5] = tested on: memory CD8^+ T cells within PBMCs; type: cell-based, human
CD8+ T Lymphocytes = type: cell-based, human

## SLNDDGLDNHTILL (Influenza B virus) [HA538-551]
CD8^+ T cells [1]
  CD8^+ T cell response hierarchy of individual peptides: Subdominant responses
CD8^+ T cells [2]
  CD8+ T cell responses (IFNγ and TNF production): detected

## SQFGQEHRL (Influenza B virus) [NS1266-274]
CD8^+ T cells [3]
  number of secondary IFNγ^+TNF^+ CD8^+ T cells in the spleen versus primary infection: ~27 fold
CD8^+ T cells [1]; 10 days culture with 10 μM peptide and IL-2, re-stimulation 1 μM
  ICS responses in healthy A2:01+ donors: detected across multiple donors
CD8^+ T cells [1]
  CD8^+ T cell response hierarchy of individual peptides: Subdominant responses
  CD8^+ T cell response, median: 0.035 % of CD8^+ T cells
  donors with response: single donor
tetramer^+ CD8^+ T cells
  tetramer^+ of CD8^+ T cells, median: 0.01%
CD8^+ T cells [2]
  CD8+ T cell responses (IFNγ and TNF production): CD8+ T cell responses were targeted
  CD8^+ T cell response, mean: 1.8 % of CD8^+ T cells
  CD8^+ T cell responses at the site of infection: targeted

## SYINRTGTFEF (Influenza A virus) [PB1482-492]
CD8^+ T cells [4]
  in vivo CD8^+ T cell responses: targeted

## SYLIRALTL (Influenza A virus) [PB1216-224]
CD8^+ T cells [4]
  in vivo CD8^+ T cell responses: targeted

## TYHSYANNI (Influenza B virus) [NA213-221]
CD8+ T cells
  immunogenicity (induction of IFNγ production in CD8+ T cells after peptide re-stimulation): immunogenic

## TYQWIIRNW (Influenza A virus) [PB2549-557]
CD8^+ T cells [4]
  in vivo CD8^+ T cell responses: targeted

## TYQWVLKNL (Influenza B virus) [PB2550-558]
CD8+ T cells
  immunogenicity (induction of IFNγ production in CD8+ T cells after peptide re-stimulation): immunogenic

## VLSQFGQEHRL (Influenza B virus) [NS1264-274]
CD8^+ T cells [1]
  CD8^+ T cell response hierarchy of individual peptides: Subdominant responses
  CD8^+ T cell response, median: 0.025 % of CD8^+ T cells
  donors with response: single donor
CD8^+ T cells [2]
  CD8+ T cell responses (IFNγ and TNF production): detected
  CD8^+ T cell responses at the site of infection: targeted

## VSDGGPNLY (Influenza A virus) [PB1591-599]
[5]
  memory CD8^+ T cell responses (IFN-γ production after peptide re-stimulation): robust memory CD8^+ T cell responses

## YFSPIRVTF (Influenza B virus) [NP165-173]
CD8+ T cells
  immunogenicity (induction of IFNγ production in CD8+ T cells after peptide re-stimulation): immunogenic

## YLNPGNYSM (Influenza B virus) [M1132-140]
CD8^+ T cells [1]
  CD8^+ T cell response hierarchy of individual peptides: Subdominant responses
  donors with response: single donor

## YYSTAASSL (Influenza B virus) [HA552-560]
CD8+ T Lymphocytes
  CD8+ T cell responses (IFNγ) after single peptide re-stimulation: immunogenic response
